{"source": "ChEMBL document CHEMBL5365552", "about": "“Tryptamines and Mental Health: Activating the 5-HT Receptor for Therapeutic Potential” (ACS Med Chem Lett, 2023)", "type_in_all_cases": "ADME, organism-based", "key": {"[1]": {"assay": "Prodrug conversion in rat assessed as 4-OH-DiPT formation by measuring Cmax at 2 mg/kg, iv measured for 15 to 360 mins by LCMS analysis", "set-up": "time upper 360 min, dose 2 mg/kg, time lower 15 min, route iv", "settings": "in vivo"}, "[2]": {"assay": "Prodrug conversion in rat assessed as 4-OH-DiPT formation by measuring Cmax at 2 mg/kg, sc measured for 15 to 360 mins by LCMS analysis", "set-up": "time upper 360 min, time lower 15 min, dose 2 mg/kg, route sc", "settings": "in vivo"}, "[3]": {"assay": "Prodrug conversion in rat assessed as 4-OH-DiPT formation by measuring Tmax at 2 mg/kg, sc measured for 15 to 360 mins by LCMS analysis", "settings": "in vivo, time 15-360 min"}, "[4]": {"assay": "Prodrug conversion in rat assessed as 4-OH-DiPT formation by measuring AUC at 2 mg/kg, iv measured for 15 to 360 mins by LCMS analysis", "set-up": "dose 2 mg/kg, time 15-360 min, route iv", "settings": "in vivo"}, "[5]": {"assay": "Prodrug conversion in rat assessed as 4-OH-DiPT formation by measuring AUC at 2 mg/kg, sc measured for 15 to 360 mins by LCMS analysis", "set-up": "dose 2 mg/kg, time upper 360 min, time lower 15 min, route sc", "settings": "in vivo"}, "[6]": {"assay": "Prodrug conversion in rat assessed as 4-OH-DiPT formation by measuring bioavailability at 2 mg/kg, sc measured for 15 to 360 mins by LCMS analysis", "settings": "in vivo, time 15-360 min"}}}
{"molecule": "CC(C)N(CCc1c[nH]c2cccc(OC(=O)CCCC(=O)O)c12)C(C)C", "values": [{"measurement": "Cmax", "setting": "[1]", "value": 458, "unit": "ng/mL"}, {"measurement": "Cmax", "setting": "[2]", "value": 103, "unit": "ng/mL"}, {"measurement": "Tmax", "setting": "[3]", "value": 36.6, "unit": "min"}, {"measurement": "AUC", "setting": "[4]", "value": 152, "unit": "ng·h/mL"}, {"measurement": "AUC", "setting": "[5]", "value": 134, "unit": "ng·h/mL"}, {"measurement": "F", "setting": "[6]", "value": 89, "unit": "%"}]}
